Source: patent US11021481B2, “Substituted isoindolin-1-ones and 2,3-dihydro-1h-pyrrolo[3,4-c]pyridin-1-ones as HPK1 antagonists” (Nimbus Saturn, Inc., priority 2019, dated 2021)
pIC50: −log10 of the molar value.

Target: HPK1 (Homo sapiens (Human), UniProt Q92918)
Assay: HPK1 biochemical enzyme assay (microfluidic mobility shift assay)
Conditions: 1.5 nM HPK1, ATP 1 mM final, 30 min preincubation, 60 min at RT, Caliper EZ Reader; read-out: HPK1 1000UMATP caliper IC50
Summary of the method: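 Mobility shift readout of HPK1 activity after a 60 min RT reaction with 1 mM ATP, 1 μM substrate and 5 mM MgCl2. Enzyme/substrate mix was first exposed to compounds for 30 min, using ten-point curves topping at 3 μM final.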

Sequence of HPK1 (Q92918 whole entry): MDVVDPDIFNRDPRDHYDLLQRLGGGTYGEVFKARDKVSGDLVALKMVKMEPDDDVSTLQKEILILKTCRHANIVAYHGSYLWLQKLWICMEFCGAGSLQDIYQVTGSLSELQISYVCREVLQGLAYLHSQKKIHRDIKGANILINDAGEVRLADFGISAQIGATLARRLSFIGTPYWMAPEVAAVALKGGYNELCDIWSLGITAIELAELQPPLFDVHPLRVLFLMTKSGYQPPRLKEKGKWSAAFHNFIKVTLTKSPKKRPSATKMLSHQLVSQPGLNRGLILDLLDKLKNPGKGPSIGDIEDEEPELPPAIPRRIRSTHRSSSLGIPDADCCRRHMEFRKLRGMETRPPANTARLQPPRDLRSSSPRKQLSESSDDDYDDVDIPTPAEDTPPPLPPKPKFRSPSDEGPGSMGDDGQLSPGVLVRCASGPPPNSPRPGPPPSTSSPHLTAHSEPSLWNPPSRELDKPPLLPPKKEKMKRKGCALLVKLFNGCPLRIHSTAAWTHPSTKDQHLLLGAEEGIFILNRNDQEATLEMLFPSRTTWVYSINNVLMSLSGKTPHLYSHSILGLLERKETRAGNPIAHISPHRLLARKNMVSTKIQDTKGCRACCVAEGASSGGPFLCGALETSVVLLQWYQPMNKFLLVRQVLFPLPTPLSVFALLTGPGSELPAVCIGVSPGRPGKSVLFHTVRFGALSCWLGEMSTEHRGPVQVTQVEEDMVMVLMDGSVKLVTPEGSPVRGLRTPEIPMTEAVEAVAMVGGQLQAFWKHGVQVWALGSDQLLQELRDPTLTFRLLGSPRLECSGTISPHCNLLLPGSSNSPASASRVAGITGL

Compound	pIC50
CN(C)C[C@]1(O)CCCN(c2ccc(Nc3ccc(-c4cnc5cc(F)ccn45)c4c3C(=O)NC4)nc2)C1 [I-567, (R)-7-((5-(3-((dimethylamino)-methyl)-3-hydroxypiperidin-1-yl)pyridin-2-yl)amino)-4-(7-fluoroimidazo [1,2-a]pyridin-3-yl)isoindolin-1-one]	> 7.00
CN(C)C[C@@]1(O)CCCN(c2ccc(Nc3ccc(-c4cnc5cc(F)ccn45)c4c3C(=O)NC4)nc2)C1 [I-568, (S)-7-((5-(3-((dimethylamino)-methyl)-3-hydroxypiperidin-1-yl)pyridin-2-yl)amino)-4-(7-fluoroimidazo [1,2-a]pyridin-3-yl)isoindolin-1-one]	> 7.00
CO[C@H]1CC[C@H](CO)N(c2ccc(Nc3ccc(-c4cnn5c4CCCC5)c4c3C(=O)NC4)nc2)C1 [I-571, 7-((5-((2R,5S)-2-(hydroxymeth-yl)-5-methoxy-piperidin-1-yl)pyridin-2-yl)amino)-4-(4,5,6,7-tetrahydropyra-zolo[1,5-a]pyridin-3-yl)isoindolin-1-one]	> 7.00
CN1CCC(C)(c2cccc(Nc3cnc(-c4ccnc5c4ccn5C)c4c3C(=O)NC4)n2)CC1 [I-575, 7-((6-(l,4-dimethyl-piperidin-4-yl)pyridin-2-yl)amino)-4-(1-methyl-1H-pyrrolo[2,3-b]pyridin-4-yl)-2,3-dihydro-1H-pyrrolo[3,4-c]pyridin-1-one]	6.00 to 7.00
COC[C@@H]1CN(c2ccc(Nc3ccc(-c4cnc5c(F)c(C)ccn45)c4c3C(=O)NC4)nc2)CCO1 [I-579, (S)-4-(8-fluoro-7-methylimidazo [1,2-a]pyridin-3-yl)-7-((5-(2-(methoxymeth-yl)morpho-lino)pyridin-2-yl)amino)isoin-dolin-1-one]	> 7.00
COC[C@H]1CN(c2ccc(Nc3ccc(-c4cnc5c(F)c(C)ccn45)c4c3C(=O)NC4)nc2)CCO1 [I-580, (R)-4-(8-fluoro-7-methylimidazo [1,2-a]pyridin-3-yl)-7-((5-(2-(methoxymeth-yl)morpho-lino)pyridin-2-yl)amino)isoin-dolin-1-one]	> 7.00
CN(C)C(C)(C)C1CCCN(c2ccc(Nc3ccc(-c4cnc5cc(F)ccn45)c4c3C(=O)NC4)nc2)C1 (centres unmarked) [I-582, 7-((5-(3-(2-(dimethylami-no)propan-2-yl)piperidin-1-yl)pyridin-2-yl)amino)-4-(7-fluoroimidazo [1,2-a]pyridin-3-yl)isoindolin-1-one]	> 7.00
Cc1ccn2c(-c3ccc(Nc4ccc(N5CC[C@@H](F)[C@H](O)C5)cn4)c4c3CNC4=O)cnc2c1F [I-583, 7-((5-((3R,4R]-4-fluoro-3-hydroxypiperidin-1-yl)pyridin-2-yl)amino)-4-(8-fluoro-7-methylimidazo [1,2-a]pyridin-3-yl)isoindolin-1-one]	> 7.00
Cc1ccn2c(-c3ccc(Nc4ccc(N5CC[C@H](F)[C@@H](O)C5)cn4)c4c3CNC4=O)cnc2c1F [I-584, 7-((5-((3S.4S)-4-fluoro-3-hydroxypiperidin-1-yl)pyridin-2-yl)amino)-4-(8-fluoro-7-methylimidazo [1,2-a]pyridin-3-yl)isoindolin-1-one]	> 7.00
Cc1ccn2c(-c3ccc(Nc4ccc(C5(O)CCOCC5)cn4)c4c3CNC4=O)cnc2c1F [I-587, 4-(8-fluoro-7-methylimidazo [1,2-a]pyridin-3-yl)-7-((5-(4-hydroxytetra-hydro-2H-pyran-4-yl)pyridin-2-yl)amino)isoin-dolin-1-one]	> 7.00
O=C1NCc2c(-c3ccnn4cccc34)ncc(Nc3ccc(N4CCC(O)CC4)cn3)c21 [I-588, 7-((5-(4-hydroxypiperidin-1-yl)pyridin-2-yl)amino)-4-(pyrrolo[1,2-b]pyridazin-4-yl)-2,3-dihydro-1H-pyrrolo[3,4-c]pyridin-1-one]	< 6.00
Cc1nc(Nc2cnc(-c3ccnc4c3ccn4C)c3c2C(=O)NC3)ccc1N1CCN(C)CC1 [I-589, 4-(1-methyl-1H-pyrrolo[2,3-b]pyridin-4-yl)-7-((6-methyl-5-(4-methylpiperazin-1-yl)pyridin-2-yl)amino)-2.3-dihydro-1H-pyrrolo[3,4-c]pyridin-1-one]	> 7.00
O=C1NCc2c(-c3ccnc4cnccc34)ncc(Nc3ccc(N4CCC(O)CC4)cn3)c21 [I-592, 7-((5-(4-hydroxypiperidin-1-yl)pyridin-2-yl)amino)-4-(1,7-naphthyridin-4-yl)-2,3-dihydro-1H-pyrrolo[3,4-c]pyridin-1-one]	< 6.00
CN(C)C[C@@H]1CN(c2ccc(Nc3ccc(-c4cnc5cc(Cl)ccn45)c4c3C(=O)NC4)nc2)CCO1 [I-593, (R)-4-(7-chloroimidazo [1,2-a]pyridin-3-yl)-7-((5-(2-((dimethylamino)-methyl)mor-pholino)pyridin-2-yl)amino)isoin-dolin-1-one]	> 7.00
C[C@@H]1CC[C@@](C)(O)CN1c1ccc(Nc2ccc(-c3cnn4c3CCCC4)c3c2C(=O)NC3)nc1 [I-598, 7-((5-((2R,5R)-5-hydroxy-2,5-dimethyl-piperidin-1-yl)pyridin-2-yl)amino)-4-(4,5,6,7-tetrahydropyra-zolo[1,5-a]pyridin-3-yl)isoindolin-1-one]	> 7.00
CN(C)C[C@@H]1CN(c2ccc(Nc3ccc(-c4cnc5cc(F)ccn45)c4c3C(=O)NC4)nc2)CCO1 [I-603, (R)-7-((5-(2-((dimethylamino)-methyl)mor-pholino)pyridin-2-yl)amino)-4-(7-fluoroimidazo [1,2-a]pyridin-3-yl)isoindolin-1-one]	> 7.00
CN(C)C[C@H]1CN(c2ccc(Nc3ccc(-c4cnc5cc(F)ccn45)c4c3C(=O)NC4)nc2)CCO1 [I-604, (S)-7-((5-(2-((dimethylamino)-methyl)mor pholino)pyridin-2-yl)amino)-4-(7-fluoroimidazo [1,2-a]pyridin-3-yl)isoindolin-1-one]	> 7.00
Cc1ccn2c(-c3ccc(Nc4ccc(CN5CCN(C)CC5)cn4)c4c3CNC4=O)cnc2c1F [I-605, 4-(8-fluoro-7-methylimidazo [1,2-a]pyridin-3-yl)-7-((5-((4-methylpiperazin-1-yl)methyl)pyri-din-2-yl)amino)isoin-dolin-1-one]	> 7.00
O=C1NCc2c(-c3cnc4cc(C(F)F)ccn34)ccc(Nc3ccc(C4(O)CCOCC4)cn3)c21 [I-608, 4-(7-(difluoromethyl)-imidazo[1,2-a]pyridin-3-yl)-7-((5-(4-hydroxytetra-hydro-2H-pyran-4-yl)pyridin-2-yl)amino)isoin-dolin-1-one]	> 7.00
O=C1NCc2c(-c3cnc4cc(C(F)F)ccn34)ccc(Nc3ccc([C@@]4(O)CCOC4)cn3)c21 [I-610, (S)-4-(7-(difluoromethyl)-imidazo[1,2-a]pyridin-3-yl)-7-((5-(3-hydroxytetra-hydrofuran-3-yl)pyridin-2-yl)amino)isoin-dolin-1-one]	> 7.00
CO[C@@]1(CN(C)C)CCCN(c2ccc(Nc3ccc(-c4cnc5cc(F)ccn45)c4c3C(=O)NC4)nc2)C1 [I-611, (R)-7-((5-(3-((dimethylamino)-methyl)-3-methoxy-piperidin-1-yl)pyridin-2-yl)amino)-4-(7-fluoroimidazo [1,2-a]pyridin-3-yl)isoindolin-1-one]	> 7.00
CO[C@]1(CN(C)C)CCCN(c2ccc(Nc3ccc(-c4cnc5cc(F)ccn45)c4c3C(=O)NC4)nc2)C1 [I-612, (S)-7-((5-(3-((dimethylamino)-methyl)-3-methoxy-piperidin-1-yl)pyridin-2-yl)amino)-4-(7-fluoroimidazo [1,2-a]pyridin-3-yl)isoindolin-1-one]	> 7.00
CN1CC[C@]12CCN(c1cccc(Nc3cnc(-c4ccnc5c4ccn5C)c4c3C(=O)NC4)n1)C2 [I-615, (R)-7-((6-(1-methyl-1.6-diazaspiro[3,4]octan-6-yl)pyridin-2-yl)amino)-4-(1-methyl-1H-pyrrolo[2,3-b]pyridin-4-yl)-2,3-dihydro-1H-pyrrolo[3,4-c]pyridin-1-one]	6.00 to 7.00
CN1CC[C@@]12CCN(c1cccc(Nc3cnc(-c4ccnc5c4ccn5C)c4c3C(=O)NC4)n1)C2 [I-616, (S)-7-((6-(1-methyl-1,6-diazaspiro[3,4]octan-6-yl)pyridin-2-yl)amino)-4-(1-methyl-1H-pyrrolo[2,3-b)pyridin-4-yl)-2,3-dihydro-1H-pyrrolo[3,4-c]pyridin-1-one]	> 7.00
CN(C)C(C)(C)[C@@H]1CN(c2ccc(Nc3ccc(-c4cnc5cnccn45)c4c3C(=O)NC4)nc2)CCO1 [I-617, (S)-7-((5-(2-(2-(dimethylami-no)propan-2-yl)morpho-lino)pyridin-2-yl)amino)-4-(imidazo[1,2-a]pyrazin-3-yl)isoindolin-1-one]	> 7.00
CN(C)C(C)(C)[C@H]1CN(c2ccc(Nc3ccc(-c4cnc5cnccn45)c4c3C(=O)NC4)nc2)CCO1 [I-618, (R)-7-((5-(2-(2-(dimethylami-no)propan-2-yl)morpho-lino)pyridin-2-yl)amino)-4-(imidazo[1,2-a]pyrazin-3-yl)isoindolin-1-one]	> 7.00
CC(C)(O)[C@H]1COCCN(c2ccc(Nc3ccc(-c4cnc5cc(F)ccn45)c4c3C(=O)NC4)nc2)C1 [I-626, (R)-4-(7-fluoroimidazo [1,2-a]pyridin-3-yl)-7-((5-(6-(2-hydroxypropan-2-yl)-1,4-oxazepan-4-yl)pyridin-2-yl)amino)isoin-dolin-1-one]	> 7.00
CC(C)(O)[C@@H]1COCCN(c2ccc(Nc3ccc(-c4cnc5cc(F)ccn45)c4c3C(=O)NC4)nc2)C1 [I-627, (S)-4-(7-fluoroimidazo [1,2-a]pyridin-3-yl)-7-((5-(6-(2-hydroxypropan-2-yl)-1,4-oxazepan-4-yl)pyridin-2-yl)amino)isoin-dolin-1-one]	> 7.00
CN1C[C@@H]2CCN(c3cccc(Nc4cnc(-c5ccnc6c5ccn6C)c5c4C(=O)NC5)n3)[C@@H]2C1 [I-630, 4-(1-methyl-1H-pyrrolo[2,3-b]pyridin-4-yl)-7-((6-((3aS, 6aS)-5-methylhexahy-dropyrrolo[3,4-b]pyrrol-1(2H)-yl)pyridin-2-yl)amino)-2,3-dihydro-1H-pyrrolo[3,4-c]pyridin-1-one]	> 7.00
